Measured values taken from patent US6710049B2, “Azole compounds as anti-fungal agents” (Ranbaxy Laboratories Limited, priority 2000, dated 2004).
In brackets after ≈: the same amount, converted by molar mass.

Experiments:
C albicans A-26 = assay: MIC determination (NCCLS broth method); assay type: cell-based, Candida albicans; conditions: Candida albicans, A26, read-out: Minimum Inhibitory Concentration (MIC)
From the text: (§1) The in-vitro evaluation of the antifungal activity of the compounds can be performed by determining the minimum inhibitory concentration (MIC) as shown in Table 1 which is the concentration of the test compound in Rosewell Park Memorial Institute (RPMI) 1640 liquid medium buffered with 3-(Morpholino)propanesulphonic acid (MOPS) to pH 7, at which there is significant inhibition of the particular fungi. In practice the National Committee for Clinical Laboratory Standard (NCCLS) M27A document for Candida and Cryptococcus and M38P for Aspergillus was used to determine the MIC against yeast and filamentous fungi with suitable modifications for dermatophytes to other filamentous fungi. Three quality control strains were included each time the MIC were determined and readings recorded only when the Quality Control results fell into the acceptable range. After MIC results had been recorded, 100 μl from each of the well showing no growth was spread over Sabouraud Dextrose Agar (SDA) to determine the minimum fungicidal concentration (MFC) as shown in Table 2.

C albicans Y01.19 = assay: MIC determination (NCCLS broth method); assay type: cell-based, Candida albicans; conditions: Candida albicans, read-out: Minimum Inhibitory Concentration (MIC)
From the text: as §1

A fumigatus 1008 = assay: MFC determination (subculture on Sabouraud Dextrose Agar); assay type: cell-based, Aspergillus fumigatus; conditions: Aspergillus fumigatus, read-out: Minimum Fungicidal Concentration (MFC)
From the text: as §1

P variotii 22319 = assay: MIC determination (NCCLS broth method); assay type: cell-based, Paecillomyces variotii; conditions: read-out: Minimum Inhibitory Concentration (MIC)
From the text: as §1

C krusei 6258 = assay: MIC determination (NCCLS broth method); assay type: cell-based; conditions: read-out: Minimum Inhibitory Concentration (MIC)
From the text: as §1

Penicillium 3162 = assay: MIC determination (NCCLS broth method); assay type: cell-based; conditions: read-out: Minimum Inhibitory Concentration (MIC)
From the text: as §1

A flavus P3 - 1041 = assay: MIC determination (NCCLS broth method); assay type: cell-based; conditions: read-out: Minimum Inhibitory Concentration (MIC)
From the text: as §1

A flavus E3 - 1044 = assay: MIC determination (NCCLS broth method); assay type: cell-based; conditions: read-out: Minimum Inhibitory Concentration (MIC)
From the text: as §1

A flavus E4 - 1042 = assay: MIC determination (NCCLS broth method); assay type: cell-based; conditions: read-out: Minimum Inhibitory Concentration (MIC)
From the text: as §1

Penicillium H - 1048 = assay: MIC determination (NCCLS broth method); assay type: cell-based; conditions: H1048, read-out: Minimum Inhibitory Concentration (MIC)
From the text: as §1

H capsulatum = assay: MIC determination (NCCLS broth method); assay type: cell-based; conditions: read-out: Minimum Inhibitory Concentration (MIC)
From the text: as §1

Penicillium 191 = assay: MIC determination (NCCLS broth method); assay type: cell-based; conditions: read-out: Minimum Inhibitory Concentration (MIC)
From the text: as §1

C parapsilosis 22019 = assay: MIC determination (NCCLS broth method); assay type: cell-based; conditions: read-out: Minimum Inhibitory Concentration (MIC)
From the text: as §1

Penicillium 2548 = assay: MIC determination (NCCLS broth method); assay type: cell-based; conditions: read-out: Minimum Inhibitory Concentration (MIC)
From the text: as §1

A flavus P2 - 1045 = assay: MIC determination (NCCLS broth method); assay type: cell-based; conditions: read-out: Minimum Inhibitory Concentration (MIC)
From the text: as §1

Penicillium I - 1049 = assay: MIC determination (NCCLS broth method); assay type: cell-based; conditions: I1049, read-out: Minimum Inhibitory Concentration (MIC)
From the text: as §1

Rhizopus (Ceylon) = assay: MIC determination (NCCLS broth method); assay type: cell-based; conditions: read-out: Minimum Inhibitory Concentration (MIC)
From the text: as §1

C krusei 766.1 = assay: MIC determination (NCCLS broth method); assay type: cell-based; conditions: read-out: Minimum Inhibitory Concentration (MIC)
From the text: as §1

Fusarium 2960C = assay: MIC determination (NCCLS broth method); assay type: cell-based; conditions: read-out: Minimum Inhibitory Concentration (MIC)
From the text: as §1

Rhizopus 1052 = assay: MIC determination (NCCLS broth method); assay type: cell-based; conditions: read-out: Minimum Inhibitory Concentration (MIC)
From the text: as §1

C tropicalis 750 = assay: MIC determination (NCCLS broth method); assay type: cell-based; conditions: read-out: Minimum Inhibitory Concentration (MIC)
From the text: as §1

Alternaria 1051 = assay: MIC determination (NCCLS broth method); assay type: cell-based; conditions: read-out: Minimum Inhibitory Concentration (MIC)
From the text: as §1

Penicillium 1641 = assay: MIC determination (NCCLS broth method); assay type: cell-based; conditions: read-out: Minimum Inhibitory Concentration (MIC)
From the text: as §1

C glabrata 90030 = assay: MIC determination (NCCLS broth method); assay type: cell-based; conditions: read-out: Minimum Inhibitory Concentration (MIC)
From the text: as §1

A flavus E2 - 1043 = assay: MIC determination (NCCLS broth method); assay type: cell-based; conditions: read-out: Minimum Inhibitory Concentration (MIC)
From the text: as §1

A niger E5 - 1047 = assay: MIC determination (NCCLS broth method); assay type: cell-based; conditions: read-out: Minimum Inhibitory Concentration (MIC)
From the text: as §1

A niger P1 - 1046 = assay: MIC determination (NCCLS broth method); assay type: cell-based; conditions: read-out: Minimum Inhibitory Concentration (MIC)
From the text: as §1

Fusarium 1050 = assay: MIC determination (NCCLS broth method); assay type: cell-based; conditions: read-out: Minimum Inhibitory Concentration (MIC)
From the text: as §1

Mucor (Ceylon) = assay: MIC determination (NCCLS broth method); assay type: cell-based; conditions: read-out: Minimum Inhibitory Concentration (MIC)
From the text: as §1

Fusarium 1827C = assay: MIC determination (NCCLS broth method); assay type: cell-based; conditions: read-out: Minimum Inhibitory Concentration (MIC)
From the text: as §1

Rhizoupus spp. isolates = assay: Comparative in vitro MIC, isolate panel; assay type: cell-based
[1] = test system: Aspergillus fumigatus isolates; assay: Comparative in vitro MIC, isolate panel; assay type: cell-based
All Candida isolates = assay: Comparative in vitro MIC, isolate panel; assay type: cell-based
All Filamentous isolates = assay: Comparative in vitro MIC, isolate panel; assay type: cell-based
[2] = test system: Penicillium spp. isolates; assay: Comparative in vitro MIC, isolate panel; assay type: cell-based
Fusarium spp. isolates = assay: Comparative in vitro MIC, isolate panel; assay type: cell-based
All fungal pathogens = assay: Comparative in vitro MIC, isolate panel; assay type: cell-based
Penicilliuim 2306 = assay: MIC determination (NCCLS broth method); assay type: cell-based, Penicillium; conditions: Penicillium, read-out: Minimum Inhibitory Concentration (MIC)
From the text: as §1

C neoformans M-106 = assay: MIC determination (NCCLS broth method); assay type: cell-based, Cryptococcus neoformans; conditions: Cryptococcus neoformans, M106, read-out: Minimum Inhibitory Concentration (MIC)
From the text: as §1

C neoformans I = assay: MIC determination (NCCLS broth method); assay type: cell-based, Cryptococcus neoformans; conditions: Cryptococcus neoformans, read-out: Minimum Inhibitory Concentration (MIC)
From the text: as §1

## OC(Cn1cncn1)(Cn1cncn1)c1ccc(F)cc1F [Fluconazole]
C albicans A-26
  MIC: 0.5 µg/mL (≈ 1.63 µM)
C albicans Y01.19
  MIC: 8 µg/mL (≈ 26.1 µM)
A fumigatus 1008
  MFC: > 128 µg/mL
P variotii 22319
  MIC: > 128 µg/mL
C krusei 6258
  MIC: 32 µg/mL (≈ 104 µM)
Penicillium 3162
  MIC: > 128 µg/mL
A flavus P3 - 1041
  MIC: > 128 µg/mL
A flavus E3 - 1044
  MIC: > 128 µg/mL
A flavus E4 - 1042
  MIC: > 128 µg/mL
Penicillium H - 1048
  MIC: > 128 µg/mL
H capsulatum
  MIC: 4 µg/mL (≈ 13.1 µM)
Penicillium 191
  MIC: 64 µg/mL (≈ 209 µM)
C parapsilosis 22019
  MIC: 2 µg/mL (≈ 6.53 µM)
Penicillium 2548
  MIC: 128 µg/mL (≈ 418 µM)
A flavus P2 - 1045
  MIC: > 128 µg/mL
Penicillium I - 1049
  MIC: > 128 µg/mL
Rhizopus (Ceylon)
  MIC: > 128 µg/mL
C krusei 766.1
  MIC: 128 µg/mL (≈ 418 µM)
Fusarium 2960C
  MIC: > 128 µg/mL
Rhizopus 1052
  MIC: > 128 µg/mL
C tropicalis 750
  MIC: 0.5 µg/mL (≈ 1.63 µM)
Alternaria 1051
  MIC: > 128 µg/mL
Penicillium 1641
  MIC: 64 µg/mL (≈ 209 µM)
C glabrata 90030
  MIC: 4 µg/mL (≈ 13.1 µM)
A flavus E2 - 1043
  MIC: > 128 µg/mL
A niger E5 - 1047
  MIC: > 128 µg/mL
A niger P1 - 1046
  MIC: 128 µg/mL (≈ 418 µM)
Fusarium 1050
  MIC: > 128 µg/mL
Mucor (Ceylon)
  MIC: > 128 µg/mL
Fusarium 1827C
  MIC: > 128 µg/mL
Rhizoupus spp. isolates
  MIC: 256 µg/mL (≈ 836 µM)
Rhizoupus spp. isolates; read-out: MIC50
  MIC50: 256 µg/mL (≈ 836 µM)
Rhizoupus spp. isolates; read-out: MIC90
  MIC90: 256 µg/mL (≈ 836 µM)
[1]
  MIC: 256 µg/mL (≈ 836 µM)
[1]; read-out: MIC50
  MIC50: 256 µg/mL (≈ 836 µM)
[1]; read-out: MIC90
  MIC90: 256 µg/mL (≈ 836 µM)
All Candida isolates
  MIC: 5.3 µg/mL (≈ 17.3 µM)
All Candida isolates; read-out: MIC50
  MIC50: 8 µg/mL (≈ 26.1 µM)
All Candida isolates; read-out: MIC90
  MIC90: 128 µg/mL (≈ 418 µM)
All Filamentous isolates
  MIC: 199 µg/mL (≈ 650 µM)
[2]
  MIC: 174 µg/mL (≈ 569 µM)
[2]; read-out: MIC50
  MIC50: 256 µg/mL (≈ 836 µM)
[2]; read-out: MIC90
  MIC90: 256 µg/mL (≈ 836 µM)
Fusarium spp. isolates
  MIC: 256 µg/mL (≈ 836 µM)
Fusarium spp. isolates; read-out: MIC50
  MIC50: 256 µg/mL (≈ 836 µM)
Fusarium spp. isolates; read-out: MIC90
  MIC90: 256 µg/mL (≈ 836 µM)
All fungal pathogens
  MIC: 105 µg/mL (≈ 343 µM)
Penicilliuim 2306
  MIC: > 128 µg/mL
C neoformans M-106
  MIC: 4 µg/mL (≈ 13.1 µM)
C neoformans I
  MIC: 1 µg/mL (≈ 3.27 µM)
